Key:
Type in all cases: cell-based
EphA2 [1] = molecular target: T1, EphA2 (Homo sapiens, UniProt P29317, L223R/L254R/V255R); experiment: Quantitative FRET of EphA2 oligomerization in transiently transfected HEK293 cells; conditions: swollen HEK293 cells
T1 construct: expressed in transfected cells; host or cells: HEK293 (HEK293T), transient transfection
Description: (§1) FIG. 4A-4E illustrates an example where dimers with different configurations induce EphA2 oligomerization and patching on the cell surface. (FIG. 4A-4D) Oligomerization curves comparing EphA2 WT and the G131Y and L223R/L254R/[…] interface mutants transiently expressed in HEK293 cells and treated with saturating concentrations of C-terminally linked dimer (2) or N-terminally linked dimer (5). The curves were obtained by fitting quantitative FRET data to monomer-oligomer models. […] Curves for higher order oligomerization are steeper than dimerization curves. (FIG. 4E) Two-photon integrated fluorescence images of HEK293 cells expressing EphA2-EYFP and EphA2-mTURQ and under hypo-osmotic conditions. The plasma membrane regions in the rectangular yellow outlines are enlarged in the insets at the bottom of each panel. The dimeric peptides induce patching of EphA2 WT on the plasma membrane and dimer (5) also induces patching of the EphA2 L223R/L254R/V255R mutant, while in the other cases the EphA2 interface mutations disrupt patching. The scale bar represents 10 μm for the main panels and 4 μm for the insets. # indicates the presence of EphA2 patches in the plasma membrane.
(§2) FIG. 12 illustrates an example of FRET efficiencies versus total receptor concentrations. […]
(§3) To examine the effects of dimeric peptide ligands on EphA2 oligomerization (including dimerization and higher order clustering), quantitative FRET experiments were performed in live cells. […] FRET is then measured in hundreds of individual cells with different EphA2 expression levels (FIG. 12), and the data are combined to yield average oligomeric fractions at different EphA2 concentrations (FIG. 4A-4D). […]
(§4) To obtain the data points for oligomerization curves (FIG. 12), the concentration of EphA2 in each small region of plasma membrane in which FRET efficiency was measured. Conversion of fluorescence intensity into accurate 2-dimensional EphA2 concentration requires a reversible hypo-osmotic treatment to swell the cells and smooth the wrinkled topology of their plasma membrane (FIG. 4E). […]

EphA2 [2] = molecular target: T2, EphA2 (Homo sapiens, UniProt P29317, G131Y); experiment: as above
T2 construct: expressed in transfected cells; host or cells: HEK293 (HEK293T), transient transfection
T2 sequence (P29317 24-976 G131Y): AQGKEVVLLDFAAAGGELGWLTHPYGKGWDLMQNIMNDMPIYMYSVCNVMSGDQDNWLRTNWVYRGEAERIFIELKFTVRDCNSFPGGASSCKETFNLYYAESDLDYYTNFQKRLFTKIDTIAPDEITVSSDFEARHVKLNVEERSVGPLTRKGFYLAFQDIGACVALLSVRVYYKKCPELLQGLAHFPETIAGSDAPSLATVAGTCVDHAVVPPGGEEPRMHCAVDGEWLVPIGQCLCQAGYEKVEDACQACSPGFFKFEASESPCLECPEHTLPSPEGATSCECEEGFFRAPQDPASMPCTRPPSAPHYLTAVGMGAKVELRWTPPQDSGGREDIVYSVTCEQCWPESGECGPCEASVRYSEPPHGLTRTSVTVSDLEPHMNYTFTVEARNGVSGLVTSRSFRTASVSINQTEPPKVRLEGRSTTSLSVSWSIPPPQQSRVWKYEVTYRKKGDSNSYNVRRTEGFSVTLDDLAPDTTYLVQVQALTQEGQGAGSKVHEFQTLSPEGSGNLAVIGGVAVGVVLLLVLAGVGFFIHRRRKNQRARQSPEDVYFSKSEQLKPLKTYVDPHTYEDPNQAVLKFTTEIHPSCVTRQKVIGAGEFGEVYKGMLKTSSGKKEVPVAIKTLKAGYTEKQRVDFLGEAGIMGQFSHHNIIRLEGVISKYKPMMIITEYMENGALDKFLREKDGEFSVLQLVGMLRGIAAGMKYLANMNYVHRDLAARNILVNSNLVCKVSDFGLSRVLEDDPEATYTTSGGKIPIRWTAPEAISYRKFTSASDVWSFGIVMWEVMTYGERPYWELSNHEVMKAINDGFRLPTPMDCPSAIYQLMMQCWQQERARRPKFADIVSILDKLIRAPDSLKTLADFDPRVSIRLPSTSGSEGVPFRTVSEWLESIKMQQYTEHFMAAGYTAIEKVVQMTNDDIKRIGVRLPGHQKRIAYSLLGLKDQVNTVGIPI
Description: as §1, §2, §3, §4

AKT = experiment: Inhibition of AKT phosphorylation on S473 in PC3 cells
Protocol: (FIG. 2A) Dose-response curves for EphA2 autophosphorylation on tyrosine 588 (pY588; purple) and for downstream inhibition of AKT phosphorylation (magenta). PC3 cells were treated for 15 min with different concentrations of the indicated peptides. […] The graphs show quantifications from multiple blots (averages ±SE; the number of experiments used to generate each curve is shown in Table 3). […] (FIG. 2B) Examples of immunoblots of lysates from PC3 cells treated with the indicated concentrations of representative ligands. […] A white vertical line indicates removal of irrelevant lanes. […] The bars show averages ±SE, and the individual measurements are shown as black dots. […] Plots of Etop versus EC50 for pY588 in FIG. 2D and for pAKT inh in FIG. 2E. Averages ±SE are shown for the peptides and ephrinA1.

T1 sequence (P29317 24-976 L223R/L254R/V255R): as the sequence (P29317 24-976 G131Y) above, with Y108G, L200R, L231R, V232R counted along it

CC(C)C[C@H](NC(=O)[C@H](Cc1c[nH]c2ccccc12)NC(=O)[C@H](C)NC(=O)CNC(=O)[C@@H](N)CSSC[C@H](N)C(=O)NCC(=O)N[C@@H](C)C(=O)N[C@@H](Cc1c[nH]c2ccccc12)C(=O)N[C@@H](CC(C)C)C(=O)N[C@@H](C)C(=O)N[C@@H](Cc1ccc(O)cc1)C(=O)N1CCC[C@H]1C(=O)N[C@@H](CC(=O)O)C(=O)N[C@@H](CO)C(=O)N[C@H](C(=O)N1CCC[C@H]1C(=O)N[C@@H](Cc1ccc(O)cc1)C(=O)N[C@@H](CCCNC(=N)N)C(=O)N1CCC[C@H]1C(=O)N[C@@H](CCCCN)C(=O)O)C(C)C)C(=O)N[C@@H](C)C(=O)N[C@@H](Cc1ccc(O)cc1)C(=O)N1CCC[C@H]1C(=O)N[C@@H](CC(=O)O)C(=O)N[C@@H](CO)C(=O)N[C@H](C(=O)N1CCC[C@H]1C(=O)N[C@@H](Cc1ccc(O)cc1)C(=O)N[C@@H](CCCNC(=N)N)C(=O)N1CCC[C@H]1C(=O)N[C@@H](CCCCN)C(=O)O)C(C)C [compound 5, CGA-WLA-YRPK dimer (N-ter)]
EphA2 patches on the plasma membrane, EphA2 L223R/L254R/V255R mutant (EphA2 [1]): causes patches
best-fit FRET oligomerization model, EphA2 G131Y mutant (EphA2 [2]; saturating peptide, HEK293 cells): dimer model
EphA2 patches on the plasma membrane, EphA2 G131Y mutant (EphA2 [2]; swollen HEK293 cells): not
IC50 (AKT; PC3 cells): 68 ± 11 pM
EC50 (AKT; Table 3, PC3 cells treated for 15 min, read-out: ECsa pAKT inhlb.): 90 ± 20 pM
Etop pAKT inhlb (AKT; Table 3, PC3 cells, 15 min, 1-pAKT/AKT normalized to cells not treated with ligand): 1.0 ± 0.04
